This note sets out measurements from ChEMBL document CHEMBL1153327, “M3 muscarinic acetylcholine receptor antagonists: SAR and optimization of bi-aryl amines” (Bioorg Med Chem Lett, 2009).

Molecules are shown by their SMILES. Activity calls are given as the source filed them. No cut-off for these calls is given here. A value given as a limit tells only on which side of the number the result lay.

Data set [1] has as its target T1, Muscarinic acetylcholine receptor M3 (Homo sapiens, UniProt P20309). In words: Antagonist activity at human recombinant muscarinic M3 receptor expressed in CHO cells assessed as inhibition of acetylcholine-induced calcium mobilization by FLIPR assay. It counts as functional, cell-based.
The target of data set [2] is T1, Muscarinic acetylcholine receptor M3. Nature of the data set: Antagonist activity at human recombinant muscarinic M3 receptor expressed in CHO cells assessed as inhibition of acetylcholine-induced calcium mobilization by FLIPR based single concentration kinetic assay. It is filed as functional, cell-based. The settings on record: read-out: pA2 (converted).
The nature of data set [3]: Permeability across artificial phospholipid membrane at pH 7.05 by HPLC. As to conditions: not told, read-out: permeability. It is filed as ADME.
In a further data set the test system is Mus musculus. In words: Inhibition of methacholine-induced bronchoconstriction in intranasally dosed BALB/c mouse assessed as enhanced pause pretreated before methacholine challenge. It counts as functional, organism-based.
Data set [4] has as its target T2, Muscarinic acetylcholine receptor M1 (Homo sapiens, UniProt P11229).
T2 sequence (P11229 whole entry): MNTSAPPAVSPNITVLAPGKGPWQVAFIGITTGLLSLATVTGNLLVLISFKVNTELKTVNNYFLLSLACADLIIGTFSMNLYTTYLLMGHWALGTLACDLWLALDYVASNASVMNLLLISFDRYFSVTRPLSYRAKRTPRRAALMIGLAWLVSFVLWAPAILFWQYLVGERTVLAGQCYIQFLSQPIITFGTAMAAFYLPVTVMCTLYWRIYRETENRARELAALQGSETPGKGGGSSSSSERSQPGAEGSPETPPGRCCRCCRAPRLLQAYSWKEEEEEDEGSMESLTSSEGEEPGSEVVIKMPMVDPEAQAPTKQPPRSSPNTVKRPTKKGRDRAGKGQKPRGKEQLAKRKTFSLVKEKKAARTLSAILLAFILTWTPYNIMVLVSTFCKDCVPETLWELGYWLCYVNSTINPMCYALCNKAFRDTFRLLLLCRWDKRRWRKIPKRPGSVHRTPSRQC
Nature of the data set: Antagonist activity at human recombinant muscarinic M1 receptor expressed in CHO cells assessed as inhibition of acetylcholine-induced calcium mobilization by FLIPR assay. It counts as functional, cell-based. The settings on record: read-out: pA2 (converted).

T1 sequence (P20309 whole entry): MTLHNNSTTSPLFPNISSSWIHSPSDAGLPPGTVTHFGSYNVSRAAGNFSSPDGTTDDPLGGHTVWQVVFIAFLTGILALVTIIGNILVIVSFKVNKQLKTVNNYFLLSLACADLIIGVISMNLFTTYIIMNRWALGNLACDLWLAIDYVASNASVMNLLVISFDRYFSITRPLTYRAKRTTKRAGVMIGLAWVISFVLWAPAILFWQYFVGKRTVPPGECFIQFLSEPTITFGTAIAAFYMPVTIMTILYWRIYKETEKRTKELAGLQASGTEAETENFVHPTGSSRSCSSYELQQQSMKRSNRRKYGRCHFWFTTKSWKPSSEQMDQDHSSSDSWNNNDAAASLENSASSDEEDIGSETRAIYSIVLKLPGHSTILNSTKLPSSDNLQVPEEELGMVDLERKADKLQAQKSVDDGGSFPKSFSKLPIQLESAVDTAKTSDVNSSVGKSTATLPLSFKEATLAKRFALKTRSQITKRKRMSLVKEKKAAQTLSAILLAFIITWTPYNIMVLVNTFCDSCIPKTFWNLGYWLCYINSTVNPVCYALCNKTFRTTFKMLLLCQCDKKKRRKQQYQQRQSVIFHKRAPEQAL

On to `O=C1CN(Cc2cccc(-c3cccc(CNC(=O)c4ccc5c(c4)OCO5)c3)c2)CCN1`, for which the half-inhibitory concentration (IC50) in data set [1] is above 10000 nM.

As for `Cc1ccc(-c2cccc(CN3CCNCC3)c2)cc1CNC(=O)c1ccc2c(c1)OCO2`, the IC50 in data set [1] is 3160 nM.

On to `C[C@H]1CN(Cc2cccc(-c3cc(CNC(=O)c4cccc(CN5CCN(CCCO)CC5)c4)ccc3F)c2)CCN1`, for which, in data set [2], the Kb was 0.0631 nM.

Turning to `O=C(NCc1cccc(-c2cccc(CN3CCOCC3)c2)c1)c1ccc2c(c1)OCO2`, the IC50 in data set [1] is above 10000 nM.

`O=C(NCc1cc(-c2cccc(CN3CCNCC3)c2)ccc1F)c1ccc2c(c1)OCO2`: the half-inhibitory concentration (IC50) in data set [1] is 251 nM.

On to `C[C@H]1CN(Cc2cccc(-c3cccc(CNC(=O)c4ccc5c(c4)OCO5)c3)n2)CCN1`, for which the IC50 in data set [1] is 39.8 nM.

`O=C(NCc1cccc(-c2cccc(CN3CCNCC3)c2)c1)c1ccccc1C(F)(F)F`: the IC50 in data set [1] is 3980 nM.

As to `C[C@H]1CN(Cc2cccc(-c3cc(CNC(=O)c4cccc(CN(C)CCCN(C)C)c4)ccc3F)c2)CCN1`, the Kb in data set [2] is 0.2 nM.

`O=C(NCc1cccc(-c2cccc(CN3CCNCC3)c2)c1)c1cccc(OC(F)(F)F)c1`: the IC50 in data set [1] was 501 nM.

On to `O=C(NCc1cccc(-c2ccc(F)c(CN3CCNCC3)c2)c1)c1ccc2c(c1)OCO2`, for which the half-inhibitory concentration (IC50) in data set [1] is 200 nM.

Take `COc1ccc(CNC(=O)c2ccc3c(c2)OCO3)cc1-c1cccc(CN2CCNCC2)c1`: the 50% inhibitory concentration (IC50) in data set [1] was 31.6 nM.

As for `O=C(NCc1cccc(-c2cccc(CN3CCCCC3)c2)c1)c1ccc2c(c1)OCO2`, the IC50 in data set [1] was 6310 nM.

With `O=C(NCc1cccc(-c2cccc(CN3CCNCC3)c2)c1)c1ccc(Cl)cc1`, the 50% inhibitory concentration (IC50) in data set [1] was 316 nM.

Turning to `CS(=O)(=O)c1cccc(C(=O)NCc2cccc(-c3cccc(CN4CCNCC4)c3)c2)c1`, the IC50 in data set [1] is 20 nM.

Consider `CCc1cccc(C(=O)NCc2cccc(-c3cccc(CN4CCNCC4)c3)c2)c1`, for which, in data set [1], the IC50 was 316 nM.

In the case of `C[C@H]1CN(Cc2ccc(-c3cccc(CNC(=O)c4ccc5c(c4)OCO5)c3)s2)CCN1`, the IC50 in data set [1] is 501 nM.

Consider `COc1ccc(-c2cccc(CNC(=O)c3ccc4c(c3)OCO4)c2)cc1CN1CCNCC1`, for which, in data set [1], the IC50 was 316 nM.

`O=C(NCc1cccc(-c2cccc(CN3CCNCC3)c2)c1)c1cccc(F)c1`: the IC50 in data set [1] is 794 nM.

Take `Cc1cccc(C(=O)NCc2cccc(-c3cccc(CN4CCNCC4)c3)c2)c1`: the half-inhibitory concentration (IC50) in data set [1] was 251 nM.

For the molecule `Nc1cccc(C(=O)NCc2cccc(-c3cccc(CN4CCNCC4)c3)c2)c1`, the IC50 in data set [1] is 2000 nM.

As for `CCC[N+]1(C)CCN(Cc2cccc(C(=O)NCc3ccc(F)c(-c4cccc(CN5CCN[C@@H](C)C5)c4)c3)c2)CC1`, in data set [2], the Kb was 0.1 nM.

For the molecule `O=C(NCc1cccc(-c2cccc(CN3CCNCC3)c2)c1)c1cccc(C(F)(F)F)c1`, the IC50 in data set [1] was 50.1 nM.

For `C[C@H]1CN(Cc2cccc(-c3cc(CNC(=O)c4cccc(CN5CCN(C)CC5)c4)ccc3F)c2)CCN1`, the Kb in data set [2] was 0.0316 nM.

As to `C[C@H]1CN(Cc2cccc(-c3cc(CNC(=O)c4cccc(CN5CCN(C=O)CC5)c4)ccc3F)c2)CCN1`, the Kb in data set [2] is 0.0794 nM.

Take `CN1CCCN(Cc2cccc(-c3cccc(CNC(=O)c4ccc5c(c4)OCO5)c3)c2)CC1`: the IC50 in data set [1] is 631 nM.

On to `Cc1c(CNC(=O)c2ccc3c(c2)OCO3)cccc1-c1cccc(CN2CCNCC2)c1`, for which the half-inhibitory concentration (IC50) in data set [1] is above 10000 nM.

As for `C[C@H]1CN(Cc2cccc(-c3cc(CNC(=O)c4cccc(CN5CC[N+](C)(C)CC5)c4)ccc3F)c2)CCN1.[I-]`, the Papp in data set [3] is below 0.3 ×10⁻⁶ cm/s. In addition, the Kb in data set [2] was 0.158 nM.

In the case of `CCN1CCN(Cc2cccc(-c3cccc(CNC(=O)c4ccc5c(c4)OCO5)c3)c2)CC1`, the half-inhibitory concentration (IC50) in data set [1] is 1580 nM.

Turning to `C[C@H]1CN(Cc2cccc(-c3cc(CNC(=O)c4cccc(C[N+]5(C)CCNCC5)c4)ccc3F)c2)CCN1`, the Kb in data set [2] is 3.16 nM.

With `C[C@H]1CN(Cc2cccc(-c3cc(CNC(=O)c4cccc(CN5CCOCC5)c4)ccc3F)c2)CCN1`, the Kb in data set [2] was 0.126 nM.

With `CC1CN(Cc2cccc(-c3cccc(CNC(=O)c4ccc5c(c4)OCO5)c3)c2)CCN1` (stereo unspecified), the IC50 in data set [1] was 10 nM.

Regarding `C[C@H]1CN(Cc2cccc(-c3cc(CNC(=O)c4cccc(CN5CCCCC5)c4)ccc3F)c2)CCN1`, the Kb in data set [2] was 0.631 nM.

`C[C@H]1CN(Cc2cccc(-c3cc(CNC(=O)c4cccc(CN5CC[N+](C)(Cc6ccccc6)CC5)c4)ccc3F)c2)CCN1`: in data set [2], the Kb is 0.0794 nM.

Regarding `COc1ccc(C(=O)NCc2cccc(-c3cccc(CN4CCNCC4)c3)c2)cc1`, in data set [1], the 50% inhibitory concentration (IC50) was 501 nM.

Take `O=C(NCc1cccc(-c2cccc(CN3CCNCC3)c2)c1)c1ccccc1Cl`: the IC50 in data set [1] is 1000 nM.

`C[N+]1(Cc2cccc(-c3cccc(CNC(=O)c4ccc5c(c4)OCO5)c3)c2)CCNCC1`: the 50% inhibitory concentration (IC50) in data set [1] was above 10000 nM.

`C[C@@H]1CN(Cc2cccc(-c3cccc(CNC(=O)c4ccc5c(c4)OCO5)c3)c2)CCN1`: the IC50 in data set [1] was 50.1 nM.

For the molecule `CCOc1cccc(C(=O)NCc2cccc(-c3cccc(CN4CCNCC4)c3)c2)c1`, the IC50 in data set [1] is 10 nM.

As for `CN1CCN(Cc2cccc(-c3cccc(CNC(=O)c4ccc5c(c4)OCO5)c3)c2)CC1`, the IC50 in data set [1] was 501 nM.

`COc1ccc(CN2CCNCC2)cc1-c1cccc(CNC(=O)c2ccc3c(c2)OCO3)c1`: the half-maximal inhibitory concentration (IC50) in data set [1] was 1260 nM.

Regarding `C[C@H]1CN(Cc2cccc(-c3cc(CNC(=O)c4cccc(CC5CCNCC5)c4)ccc3F)c2)CCN1`, the inhibition result in the data set with Mus musculus is “Active”. In addition, in data set [4], the Kb is 0.2 nM.

Turning to `O=C(NCc1cccc(-c2cccc(C(=O)N3CCNCC3)c2)c1)c1ccc2c(c1)OCO2`, the 50% inhibitory concentration (IC50) in data set [1] is 5010 nM.

As for `C[N+]1(C)CCN(Cc2cccc(-c3cccc(CNC(=O)c4ccc5c(c4)OCO5)c3)c2)CC1`, the half-inhibitory concentration (IC50) in data set [1] was 2510 nM.

In the case of `CN1CCN(Cc2cccc(C(=O)NCc3cccc(-c4cccc(CN5CCNCC5)c4)c3)c2)CC1`, in data set [1], the IC50 was 3.98 nM.

For the molecule `O=C(NCc1cccc(-c2cccc(CN3CCCNCC3)c2)c1)c1ccc2c(c1)OCO2`, in data set [1], the concentration for half-maximal inhibition (IC50) is 316 nM.

As for `C[C@H]1CN(Cc2cccc(-c3cc(CNC(=O)c4cccc(CN(C)C)c4)ccc3F)c2)CCN1`, the Kb in data set [2] was 3.16 nM.

For `C[C@H]1CN(Cc2cccc(-c3cc(CNC(=O)c4cccc(CN5CC[N+]6(CCCCC6)CC5)c4)ccc3F)c2)CCN1`, in data set [2], the Kb is 0.126 nM.

As for `COc1cccc(C(=O)NCc2cccc(-c3cccc(CN4CCNCC4)c3)c2)c1`, the half-maximal inhibitory concentration (IC50) in data set [1] was 79.4 nM.

As to `COc1ccccc1C(=O)NCc1cccc(-c2cccc(CN3CCNCC3)c2)c1`, the IC50 in data set [1] was 501 nM.

In the case of `C[C@H]1CN(Cc2cccc(-c3cccc(CNC(=O)c4ccc5c(c4)OCO5)c3)c2)CCN1`, the IC50 in data set [1] is 5.01 nM.

As to `O=C(NCc1cccc(-c2cccc(CN3C[C@@H]4C[C@H]3CN4)c2)c1)c1ccc2c(c1)OCO2`, in data set [1], the IC50 was 79.4 nM.

Consider `CN(C)c1cccc(C(=O)NCc2cccc(-c3cccc(CN4CCNCC4)c3)c2)c1`, for which, in data set [1], the half-maximal inhibitory concentration (IC50) was 200 nM.

In the case of `O=C(NCc1cccc(-c2cccc(CN3CCNCC3)c2)c1)c1cccc(Cl)c1`, the concentration for half-maximal inhibition (IC50) in data set [1] is 100 nM.

For the molecule `O=S(=O)(NCc1cccc(-c2cccc(CN3CCNCC3)c2)c1)c1ccc2c(c1)OCO2`, the IC50 in data set [1] was 251 nM.

As to `COC(=O)c1cccc(C(=O)NCc2cccc(-c3cccc(CN4CCNCC4)c3)c2)c1`, the half-maximal inhibitory concentration (IC50) in data set [1] was 20 nM.

As to `CC(=O)Nc1cccc(C(=O)NCc2cccc(-c3cccc(CN4CCNCC4)c3)c2)c1`, in data set [1], the IC50 was 200 nM.

Take `O=C(NCc1cccc(-c2cccc(CN3CCNCC3)c2)c1)c1cccc(Oc2ccccc2)c1`: the 50% inhibitory concentration (IC50) in data set [1] was 1260 nM.

In the case of `O=C(Nc1cccc(-c2cccc(CN3CCNCC3)c2)c1)c1ccc2c(c1)OCO2`, the 50% inhibitory concentration (IC50) in data set [1] is 6310 nM.

With `N#Cc1ccccc1C(=O)NCc1cccc(-c2cccc(CN3CCNCC3)c2)c1`, the IC50 in data set [1] was 316 nM.

Turning to `O=C(NCc1cccc(-c2cccc(CN3CCNCC3)c2)c1)c1cccc(O)c1`, the 50% inhibitory concentration (IC50) in data set [1] is 2000 nM.

Take `N#Cc1cccc(C(=O)NCc2cccc(-c3cccc(CN4CCNCC4)c3)c2)c1`: the half-inhibitory concentration (IC50) in data set [1] is 50.1 nM.

Consider `O=C(NCc1ccc(F)c(-c2cccc(CN3CCNCC3)c2)c1)c1ccc2c(c1)OCO2`, for which, in data set [1], the IC50 is 6.31 nM.

Consider `O=C(NCc1cccc(-c2cccc(CN3CCNCC3)c2)c1F)c1ccc2c(c1)OCO2`, for which, in data set [1], the half-inhibitory concentration (IC50) was 2510 nM.

In the case of `CC(=O)N1CCN(Cc2cccc(-c3cccc(CNC(=O)c4ccc5c(c4)OCO5)c3)c2)CC1`, the IC50 in data set [1] was 3980 nM.

Regarding `N#Cc1ccc(C(=O)NCc2cccc(-c3cccc(CN4CCNCC4)c3)c2)cc1`, in data set [1], the half-inhibitory concentration (IC50) is 79.4 nM.

With `O=C(NCc1cccc(-c2cccc(CN3CCNCC3)c2)c1)Nc1ccc2c(c1)OCO2`, the half-inhibitory concentration (IC50) in data set [1] is 7940 nM.

For `O=C(NCc1cccc(-c2cccc(CN3CCNCC3)c2)c1)c1ccc(C(F)(F)F)cc1`, the concentration for half-maximal inhibition (IC50) in data set [1] is 631 nM.

As to `C[C@H]1CN(Cc2cccc(-c3cc(CNC(=O)c4cccc(CN5CCCN(C)CC5)c4)ccc3F)c2)CCN1`, in data set [2], the Kb was 0.251 nM.

Consider `CC(=O)c1cccc(C(=O)NCc2cccc(-c3cccc(CN4CCNCC4)c3)c2)c1`, for which the IC50 in data set [1] was 10 nM.
